Like-named read-outs stand apart in the source and are kept apart here.
What was measured:
[1] = biological target: T1, mutant HIV reverse transcriptase with the Y181C mutation (Human immunodeficiency virus type 1 group M subtype B, UniProt P04585, Y768C); assay: Analogous RT inhibition assay, Y181C mutant; assay type: biochemical
T1 construct: mutations that occur in the reverse transcriptase segment of the pol gene; made in house
Procedure: (§1) 100 μL reaction mixtures were initiated with a combination of primer-template substrate (10 nM final concentration) and dNTPs (0.6 μM dNTPs, 0.75 μM [^3H]-dGTP). The heterodimeric nucleic acid substrate was generated by annealing the DNA primer pD500 (described in Shaw-Reid et al., J. Biol. Chem., 278: 2777-2780; obtained from Integrated DNA Technologies) to t500, a 500 nucleotide RNA template created by in vitro transcription (see Shaw-Reid et al., J. Biol. Chem., 278: 2777-2780). After 1 hour incubation at 37° C., reactions were quenched by 10 μL streptavidin scintillation proximity assay beads (10 mg/mL, from Amersham Biosciences) in 0.5 M EDTA, pH 8. Microtiter plates were incubated an additional 10 minutes at 37° C. prior to quantification via Topcount (Packard).
(§2) Analogous assays were conducted substituting mutant HIV strains to determine the […] inhibition of compounds of the present invention against mutant HIV reverse transcriptase. In one strain the reverse transcriptase has the Y181C mutation and in the other strain the reverse transcriptase has the K103N mutation. The mutations were generated with the […] site-directed mutagenesis kit (Stratagene). […] The compounds set forth in the other Examples were not tested in the Y181C assay. […] The compounds set forth in the other Examples were not tested in the K103N assay.

[2] = biological target: T2, mutant HIV reverse transcriptase with the K103N mutation (Human immunodeficiency virus type 1 group M subtype B, UniProt P04585, K690N); assay: Analogous RT inhibition assay, K103N mutant; assay type: biochemical
T2 construct: mutations that occur in the reverse transcriptase segment of the pol gene; made in house
Procedure: as §1, §2

[3] = test system: HIV replication in T-lymphoid cells; assay: Spread assay: inhibition of acute HIV infection of T-lymphoid cells; assay type: cell-based; settings: read-out: IC95, spread assay (inhibition of HIV replication)
Procedure: An assay for the inhibition of acute HIV infection of T-lymphoid cells (alternatively referred to herein as the “spread assay”) was conducted in accordance with Vacca, J. P. et al., Proc. Natl. Acad. Sci. USA 1994, 91: 4096. […] The compounds of Examples 26, 29, 30, 33-35 and 62 were tested in the spread assay up to 10 micromolar, but specific IC95 values were not obtained; i.e., the IC95 values were greater than 10 micromolar. The compounds of Examples 47 and 61 were not tested.

[4] = RT with Y181C mutation, tested up to 20 micromolar, read-out: IC50, Y181C mutant assay
[5] = RT with K103N mutation, tested up to 20 micromolar, read-out: IC50, K103N mutant assay
[6] = Human immunodeficiency virus 1, acute HIV infection of T-lymphoid cells, tested up to 10 micromolar

Question: Which results are given for N#Cc1ccc2[nH]c(C(N)=O)c(S(=O)(=O)N3CCCC3)c2c1 [Example 68, 5-Cyano-3-(pyrrolidin-1-ylsulfonyl)-1H-indole-2-carboxamide]?
Answer: IC50 [1, 4]: > 20 µM; IC50 [2, 5]: 1 to 20 µM; IC95 [3, 6]: < 1 µM

Question: Which IC50 [1] does the source give for O=C(NCc1ccn[nH]1)c1[nH]c2ccc(Br)cc2c1S(=O)(=O)N1CCCC1 [Example 59, 5-bromo-N-(1H-pyrazol-5-ylmethyl)-3-(pyrrolidin-1-ylsulfonyl)-1H-indole-2-carboxamide] here?
Answer: The IC50 was under 1 µM.

Question: And the IC50 [2]?
Answer: Its IC50 is under 1 µM.

Question: What about the IC95 [3, 6] of the same compound?
Answer: The IC95 was under 1 µM.

Question: With NC(=O)c1[nH]c2ccc(Cl)cc2c1S(=O)(=O)NC1CCCC1 [Example 4, 5-chloro-3-[(cyclopentylamino)sulfonyl]-1H-indole-2-carboxamide] as the compound, how does the IC50 [1, 4] read?
Answer: The IC50 was under 1 µM.

Question: What about the IC50 [2] of the same compound?
Answer: The IC50 was over 20 µM.

Question: And the IC95 [3, 6]?
Answer: Its IC95 is under 1 µM.

Question: What does the source list for O=C(NCCO)c1[nH]c2ccc(Br)cc2c1S(=O)(=O)N1CCCCC1 [Example 31, 5-bromo-N-(2-hydroxyethyl)-3-(piperidin-1-ylsulfonyl)-1H-indole-2-carboxamide]?
Answer: IC50 [1]: < 1 µM; IC50 [2]: > 20 µM; IC95 ([3]; Human immunodeficiency virus 1, T-lymphoid): < 1 µM

Question: How did the IC50 [1, 4] turn out when NC(=O)c1[nH]c2ccc(Br)cc2c1S(=O)(=O)NCC1CCCO1 (stereo not shown) [Example 18, 5-bromo-3-{[(tetrahydrofuran-2-ylmethyl)amino]sulfonyl}-1H-indole-2-carboxamide] was run?
Answer: Its IC50 is under 1 µM.

Question: What about the IC50 [2, 5] of the same compound?
Answer: Its IC50 is over 20 µM.

Question: And the IC95 [3, 6]?
Answer: Its IC95 is under 1 µM.

Question: O=C(NCc1ccccc1OC(F)F)c1[nH]c2ccc(Br)cc2c1S(=O)(=O)N1CCCC1 [Example 53, 5-bromo-N-[2-(difluoromethoxy)benzyl]-3-(pyrrolidin-1-ylsulfonyl)-1H-indole-2-carboxamide] was tested. Which IC50 [1] did it give?
Answer: The IC50 was under 1 µM.

Question: And the IC50 [2]?
Answer: Its IC50 is under 1 µM.

Question: And the IC95 [3, 6]?
Answer: The IC95 was under 1 µM.

Question: NC(=O)c1[nH]c2ccc(Cl)cc2c1S(=O)(=O)NC1CCCCC1 [Example 2, 5-chloro-3-[(cyclohexylamino)sulfonyl]-1H-indole-2-carboxamide] was tested. Which IC50 [1] did it give?
Answer: The IC50 was under 1 µM.

Question: What about the IC50 [2] of the same compound?
Answer: Its IC50 is over 20 µM.

Question: What about the IC95 [3, 6] of the same compound?
Answer: The IC95 was under 1 µM.

Question: Which results are given for NC(=O)c1[nH]c2ccc(Br)cc2c1S(=O)(=O)N1CCCC(F)(F)C1 [Example 21, 5-bromo-3-[(3,3-difluoropiperidin-1-yl)sulfonyl]-1H-indole-2-carboxamide]?
Answer: IC50 [1]: < 1 µM; IC50 [2]: > 20 µM; IC95 [3, 6]: < 1 µM

Question: O=C(NCc1ccccc1O)c1[nH]c2ccc(Br)cc2c1S(=O)(=O)N1CCCC1 [Example 51, 5-bromo-N-(2-hydroxybenzyl)-3-(pyrrolidin-1-ylsulfonyl)-1H-indole-2-carboxamide] was tested. Which IC50 [1] did it give?
Answer: The IC50 was under 1 µM.

Question: What about the IC50 [2] of the same compound?
Answer: Its IC50 is under 1 µM.

Question: And the IC95 [3, 6]?
Answer: Its IC95 is under 1 µM.

Question: With NC(=O)c1[nH]c2ccc(Cl)cc2c1S(=O)(=O)N1CC=CC1 [Example 37, 5-chloro-3-(2,5-dihydro-1H-pyrrol-1-ylsulfonyl)-1H-indole-2-carboxamide] as the compound, how does the IC50 [1, 4] read?
Answer: The IC50 was under 1 µM.

Question: And the IC50 [2]?
Answer: Its IC50 is 1 to 20 µM.

Question: And the IC95 [3, 6]?
Answer: Its IC95 is under 1 µM.

Question: Which IC50 [1, 4] does the source give for NC(=O)c1[nH]c2ccc(Br)cc2c1S(=O)(=O)NC1CCCCC1 [Example 16, 5-bromo-3-[(cyclohexylamino)sulfonyl]-1H-indole-2-carboxamide] here?
Answer: The IC50 was under 1 µM.

Question: And the IC50 [2, 5]?
Answer: The IC50 was over 20 µM.

Question: What about the IC95 [3, 6] of the same compound?
Answer: Its IC95 is under 1 µM.

Question: How did the IC50 [1, 4] turn out when NC(=O)c1[nH]c2ccc(Cl)cc2c1S(=O)(=O)N1CCCC1 [Example 6, 5-chloro-3-(pyrrolidin-1-ylsulfonyl)-1H-indole-2-carboxamide] was run?
Answer: The IC50 was under 1 µM.

Question: What about the IC50 [2] of the same compound?
Answer: Its IC50 is 1 to 20 µM.

Question: What about the IC95 [3, 6] of the same compound?
Answer: Its IC95 is under 1 µM.

Question: Which IC50 [1, 4] does the source give for NC(=O)c1[nH]c2ccc(Br)cc2c1S(=O)(=O)N1CCCC1 [Example 1, 5-Bromo-3-(pyrrolidin-1-ylsulfonyl)-1H-indole-2-carboxamide] here?
Answer: The IC50 was under 1 µM.

Question: And the IC50 [2, 5]?
Answer: The IC50 was 1 to 20 µM.

Question: And the IC95 [3, 6]?
Answer: Its IC95 is under 1 µM.

Question: Which IC50 [1, 4] does the source give for NC(=O)c1[nH]c2ccc(Cl)cc2c1S(=O)(=O)N1CCC(F)(F)C1 [Example 39, 5-chloro-3-[(3,3-difluoropyrrolidin-1-yl)sulfonyl]-1H-indole-2-carboxamide] here?
Answer: The IC50 was under 1 µM.

Question: And the IC95 [3, 6]?
Answer: Its IC95 is under 1 µM.

Question: Which IC50 [1, 4] does the source give for O=C(NCc1nccs1)c1[nH]c2ccc(Br)cc2c1S(=O)(=O)N1CCCC1 [Example 47, 5-Bromo-3-(pyrrolidin-1-ylsulfonyl)-N-(1,3-thiazol-2-ylmethyl)-1H-indole-2-carboxamide] here?
Answer: The IC50 was under 1 µM.

Question: And the IC50 [2, 5]?
Answer: Its IC50 is under 1 µM.
